Experimental data reported in ChEMBL document CHEMBL1129763, “Acylhydrazones as M1/M3 selective muscarinic agonists” (Bioorg Med Chem Lett, 1996).

Legend:
[1] = target: T1, Muscarinic acetylcholine receptor M1 (Rattus norvegicus, UniProt P08482); assay: Ability to displace [3H]- pirenzepine from M1 receptor in rat hippocampal membranes; type: cell membranes, Hippocampus
T1 sequence (P08482 whole entry): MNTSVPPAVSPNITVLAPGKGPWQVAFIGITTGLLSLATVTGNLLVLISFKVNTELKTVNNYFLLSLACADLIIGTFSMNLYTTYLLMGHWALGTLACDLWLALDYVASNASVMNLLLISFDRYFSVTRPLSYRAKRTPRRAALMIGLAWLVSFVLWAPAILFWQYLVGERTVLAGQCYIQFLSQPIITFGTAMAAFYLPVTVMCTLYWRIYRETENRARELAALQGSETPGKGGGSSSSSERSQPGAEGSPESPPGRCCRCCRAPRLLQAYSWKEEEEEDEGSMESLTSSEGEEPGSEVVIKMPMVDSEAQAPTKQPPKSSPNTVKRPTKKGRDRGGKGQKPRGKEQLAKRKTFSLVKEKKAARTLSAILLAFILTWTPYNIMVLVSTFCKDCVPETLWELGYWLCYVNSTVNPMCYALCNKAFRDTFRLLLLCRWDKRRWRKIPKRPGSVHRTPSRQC

[2] = target: Muscarinic acetylcholine receptor M3 (Cavia porcellus) (UniProt Q8VH26); assay: Compound was evaluated for intrinsic activity at M3 receptor by measuring isometric contractions of the isolated guinea pig trachea; type: tissue-based
Muscarinic acetylcholine receptor M3 (Cavia porcellus), sequence (Q8VH26 1-587): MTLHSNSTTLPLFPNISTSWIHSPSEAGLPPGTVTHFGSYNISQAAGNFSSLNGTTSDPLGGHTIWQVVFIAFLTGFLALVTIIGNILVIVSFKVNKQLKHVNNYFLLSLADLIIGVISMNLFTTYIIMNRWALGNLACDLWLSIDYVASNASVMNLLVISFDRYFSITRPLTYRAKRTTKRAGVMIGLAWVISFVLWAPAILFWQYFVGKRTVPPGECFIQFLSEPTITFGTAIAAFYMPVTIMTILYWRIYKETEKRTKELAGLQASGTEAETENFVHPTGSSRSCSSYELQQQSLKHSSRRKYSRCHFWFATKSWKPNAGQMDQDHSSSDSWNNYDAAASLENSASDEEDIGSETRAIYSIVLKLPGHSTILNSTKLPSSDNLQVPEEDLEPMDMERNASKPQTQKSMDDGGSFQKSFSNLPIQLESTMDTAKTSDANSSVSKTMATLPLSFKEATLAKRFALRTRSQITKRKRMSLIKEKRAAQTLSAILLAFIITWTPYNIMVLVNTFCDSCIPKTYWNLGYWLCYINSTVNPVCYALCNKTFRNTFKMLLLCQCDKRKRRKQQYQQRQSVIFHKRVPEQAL

Row | SMILES | Ki [1] [µM] | Intrinsic activity [2] [%]
1 | CCCC(=O)N/N=C1\CC2(CCN(C)CC2)OC1C (centres undefined) | 65 | –
2 | CC(C)C(=O)N/N=C1\CC2(CCN(C)CC2)OC1C (centres undefined) | 28 | –
3 | CCCCCCC(=O)N/N=C1\CC2(CCN(C)CC2)OC1C (centres undefined) | 25 | –
4 | CC1OC2(CCN(C)CC2)C/C1=N\NC(=O)c1ccc(C2CCCCC2)cc1 (centres undefined) | 4.8 | 78
5 | CC(=O)N/N=C1\CC2(CCNCC2)OC1C (centres undefined) | 180 | –
6 | CC1OC2(CCN(C)CC2)C/C1=N\NC(=O)CC1CCCCC1 (centres undefined) | 30 | –
7 | CC(=O)N(C)/N=C1\CC2(CCN(C)CC2)OC1C (centres undefined) | 60 | –
8 | CCCCCCCC(=O)N/N=C1\CC2(CCN(C)CC2)OC1C (centres undefined) | 9.5 | 81
9 | CC(=O)N/N=C1\CC2(CCN(C)CC2)OC1C (centres undefined) | 100 | 91
10 | CCCCC(=O)N/N=C1\CC2(CCN(C)CC2)OC1C (centres undefined) | 41 | –
11 | CCCCCCCCCC(=O)N/N=C1\CC2(CCN(C)CC2)OC1C (centres undefined) | 14.4 | –
12 | CC(C)CC(=O)N/N=C1\CC2(CCN(C)CC2)OC1C (centres undefined) | 90 | –
13 | CC1OC2(CCN(C)CC2)C/C1=N\NC(=O)Cc1ccccc1 (centres undefined) | 30 | –
14 | CCCCCC(=O)N/N=C1\CC2(CCN(C)CC2)OC1C (centres undefined) | 25 | –
15 | CC1OC2(CCN(C)CC2)C/C1=N\NC(=O)Cc1ccc2ccccc2c1 (centres undefined) | 10 | –
16 | CCC(=O)N/N=C1\CC2(CCN(C)CC2)OC1C (centres undefined) | 76 | –
17 | CC1OC2(CCN(C)CC2)C/C1=N\NC(=O)CCCC1CCCCC1 (centres undefined) | 13.6 | –
18 | CC1OC2(CCN(C)CC2)C/C1=N\NC(=O)CCCCC1CCCCC1 (centres undefined) | 8 | –
19 | COC(=O)N/N=C1\CC2(CCN(C)CC2)OC1C (centres undefined) | 25 | –
20 | CC1OC2(CCN(C)CC2)C/C1=N\NC(=O)c1ccccc1 (centres undefined) | 78 | –
21 | CCCCCCCC(=O)N(C)/N=C1\CC2(CCN(C)CC2)OC1C (centres undefined) | 8.8 | –
22 | CC1OC2(CCN(C)CC2)C/C1=N\NC(=O)C1CCCCC1 (centres undefined) | 38 | –
23 | CCCC(=O)N(C)/N=C1\CC2(CCN(C)CC2)OC1C (centres undefined) | 16 | –
24 | CCCCCCCCC(=O)N/N=C1\CC2(CCN(C)CC2)OC1C (centres undefined) | 9 | –
25 | CC1OC2(CCN(C)CC2)C/C1=N\NC(=O)CCCc1ccccc1 (centres undefined) | 34 | –
26 | CC1OC2(CCN(C)CC2)C/C1=N\NC(=O)C(C)(C)C (centres undefined) | 15.2 | –
